# In US20050203063A1, “Proteasome pathway inhibitors and related methods” (priority 2003, published 2005):
# Columns and labels:
# Gst-Rad23 [1] = target: T1, Gst-Rad23 (Saccharomyces cerevisiae, UniProt P32628); experiment: Binding of UbSic1 to Gst-Rad23 on glutathione sepharose beads
# T1 construct: made in house
# T1 sequence (P32628 1-398): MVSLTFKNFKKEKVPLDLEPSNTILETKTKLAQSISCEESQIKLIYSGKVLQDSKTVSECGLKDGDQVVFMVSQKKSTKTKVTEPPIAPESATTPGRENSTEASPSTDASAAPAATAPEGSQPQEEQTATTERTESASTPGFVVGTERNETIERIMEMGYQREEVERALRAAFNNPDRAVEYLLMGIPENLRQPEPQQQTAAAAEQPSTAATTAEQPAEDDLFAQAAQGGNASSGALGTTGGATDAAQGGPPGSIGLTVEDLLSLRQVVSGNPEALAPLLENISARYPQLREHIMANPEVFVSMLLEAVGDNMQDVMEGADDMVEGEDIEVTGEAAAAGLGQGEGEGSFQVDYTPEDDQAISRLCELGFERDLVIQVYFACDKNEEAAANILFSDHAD
# Procedure: (§1) FIG. 2. […] (A) Degradation of UbSic1. Purified 26S proteasomes were preincubated in the presence or absence of test compounds. UbSic1 was then added, and degradation assayed as described (6). Py mock refers to the pyridine solvent in which C23 was dissolved which was marginally inhibitory, unlike the 50% DMSO vehicle used for other test compounds. (B) Deubiquitination of UbSic1. […] UbSic1 was then added, and deubiquitination was assayed as described (6). (C) Titration curve with varying concentrations of C92 to determine half-maximal inhibition of deubiquitination. (D) C92 inhibits binding of UbSic1 to 26S proteasomes. Purified 26S proteasomes immobilized on anti-Flag beads were incubated with UbSic1 in the presence or absence of C92 as described (6). Following binding, beads were washed and analyzed by immunoblotting with anti-Sic1 polyclonal serum. (E) Binding of UbSic1 to the polyUb binding proteins Rpn10 and Rad23 is inhibited by C92. Recombinant Gst-Rpn10 and Gst-Rad23 (1 μg each) were immobilized on glutathione sepharose beads and then incubated with UbSic1 in the presence or absence of C92. Following binding, beads were washed and analyzed by immunoblotting. (F) C92 interacts with multiUb chains. […]
# Recombinant Gst-Rpn10 and Gst-Rad23 were immobilized on glutathione sepharose beads. […] Aliquots were analyzed by immunoblotting.
# 26S proteasomes = tested on: T2, 26S proteasomes; experiment: Binding of UbSic1 to immobilized 26S proteasomes; set-up: species or system S. cerevisiae; details: 5 μM C92
# T2 construct: IC50, deubiquitination of UbSic1; other: titration, epoxomicin-treated proteasomes; other: 5 μM C92
# Procedure: as §1, with “Recombinant Gst-Rpn10 and Gst-Rad23 (1 μg each) were immobilized on glutathione sepharose beads and then incubated with UbSic1 in the presence or absence of C92.” left out, “immunoblotting.” for “immunoblotting. (F) C92 interacts with multiUb chains.”
# 26S proteasomes were immunoprecipitated with anti-Flag resin from tagged and untagged control strains and incubated with 1 mM phenanthroline, 2.5 uM Ub-aldehyde, and 100 μM MG132 at 4° C. for 45 min. […] Washed beads were resuspended in 2×SDS sample buffer and aliquots analyzed by immunoblotting with anti-Sic1.
# Gst-Rpn10 = target: T3, Gst-Rpn10 (Saccharomyces cerevisiae, UniProt P38886); experiment: Native gel mobility shift of receptor protein; format: binding
# T3 construct: made in house
# T3 sequence (P38886 1-268): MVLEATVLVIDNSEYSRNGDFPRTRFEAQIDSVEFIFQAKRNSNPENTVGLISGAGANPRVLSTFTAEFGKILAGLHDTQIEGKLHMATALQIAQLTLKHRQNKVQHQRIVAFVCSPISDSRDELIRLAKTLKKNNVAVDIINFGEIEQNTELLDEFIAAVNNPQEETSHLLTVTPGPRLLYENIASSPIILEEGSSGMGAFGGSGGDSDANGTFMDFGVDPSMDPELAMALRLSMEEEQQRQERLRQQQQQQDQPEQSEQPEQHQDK
# Procedure: as §1, with “chains. Equivalent amounts (5 μg) of purified Gst, Gst-fusion protein or multiUb chains were incubated with C92 or C1 before being loaded on a 5% native polyacryamide gel.” for “chains.”
# Gst-Rad23 [2] = target: T1, Gst-Rad23; experiment: Native gel mobility shift of receptor protein; format: binding
# Procedure: as §1, with “chains. Equivalent amounts (5 μg) of purified Gst, Gst-fusion protein or multiUb chains were incubated with C92 or C1 before being loaded on a 5% native polyacryamide gel.” for “chains.”
smiles,measurement,setting,value
O=C(Nc1ccc(/C=C/c2ccc(NC(=O)c3cc(S(=O)(=O)O)c4cccnc4c3O)cc2S(=O)(=O)O)c(S(=O)(=O)O)c1)c1cc(S(=O)(=O)O)c2cccnc2c1O [Compound 92],inhibition of binding of UbSic1 to Rad23,Gst-Rad23 [1],abolished binding
same,inhibition of binding of UbSic1 to 26S proteasomes,26S proteasomes,strongly inhibited binding
same,native gel mobility of Gst-Rpn10,Gst-Rpn10,"not Gst-Rpn10 or Gst-Rad23, was altered"
same,native gel mobility of Gst-Rad23,Gst-Rad23 [2],"not Gst-Rpn10 or Gst-Rad23, was altered"
